Assay results reported in PubChem BioAssay (NCI).
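Following 48 hours of exposure in 96-well plates, responses at five concentrations were used to interpolate endpoints linearly. GI50: concentration for 50% inhibition of growth. TGI: total growth inhibition.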

Columns and labels:
Assay in all cases: growth of human tumour cells (NCI), 48 h
[1] = system: DU-145 prostate
[2] = system: HS 578T breast
[3] = system: UACC-257 melanoma
[4] = system: MALME-3M melanoma
[5] = system: NCI/ADR-RES ovarian
[6] = system: NCI-H460 lung
[7] = system: IGROV1 ovarian
[8] = system: SF-295 CNS
[9] = system: HL-60(TB) leukemia
[10] = system: RPMI-8226 leukemia
[11] = system: M14 melanoma
[12] = system: HOP-92 NSCLC
[13] = system: MCF7 breast
[14] = system: SNB-19 CNS
[15] = system: NCI-H23 lung
[16] = system: ACHN renal
[17] = system: UO-31 renal
[18] = system: OVCAR-5 ovarian
[19] = system: HCC-2998 colon
[20] = system: PC-3 prostate
[21] = system: HCT-116 colon
[22] = system: A498 renal
[23] = system: T-47D breast
[24] = system: SK-OV-3 ovarian
[25] = system: SF-268 CNS
[26] = system: CAKI-1 renal
[27] = system: EKVX NSCLC
[28] = system: SN12C renal
[29] = system: HOP-62 NSCLC
[30] = system: LOX IMVI melanoma
[31] = system: SK-MEL-5 melanoma
[32] = system: OVCAR-4 ovarian
[33] = system: SF-539 CNS
[34] = system: RXF 393 renal
[35] = system: MOLT-4 leukemia
[36] = system: K-562 leukemia
[37] = system: SNB-75 CNS
[38] = system: OVCAR-8 ovarian
[39] = system: NCI-H522 lung
[40] = system: OVCAR-3 ovarian
[41] = system: TK-10 renal
[42] = system: MDA-MB-231 breast
[43] = system: CCRF-CEM leukemia
[44] = system: UACC-62 melanoma
[45] = system: U251 CNS
[46] = system: SK-MEL-2 melanoma
[47] = system: 786-0 renal
[48] = system: HCT-15 colon
[49] = system: SK-MEL-28 melanoma
[50] = system: SW-620 colon
[51] = system: MDA-MB-435
[52] = system: BT-549 breast
[53] = system: KM12 colon
[54] = system: SR leukemia
[55] = system: COLO 205 colon
[56] = system: A549 NSCLC
[57] = system: NCI-H226 lung
[58] = system: HT29 colon

SMILES: COc1cc(/C=C/C(=O)c2cc(OC)c(OC)c(OC)c2)ccc1Oc1nc(NCCO)nc(N2CCOCC2)n1
- GI50 [1]: 2.99 µM
- TGI [1]: 12.4 µM
- GI50 [2]: 3.62 µM
- TGI [2]: 22.4 µM
- GI50 [3]: 2.83 µM
- TGI [3]: 12.7 µM
- GI50 [4]: 2.67 µM
- TGI [4]: 6.74 µM
- GI50 [5]: 4.72 µM
- TGI [5]: 23.4 µM
- GI50 [6]: 1.87 µM
- TGI [6]: 4.03 µM
- GI50 [7]: 2.45 µM
- TGI [7]: 6.17 µM
- GI50 [8]: 2.9 µM
- TGI [8]: 10.6 µM
- GI50 [9]: 1.54 µM
- TGI [9]: 6.8 µM
- GI50 [10]: 1.63 µM
- TGI [10]: 5.85 µM
- GI50 [11]: 2.38 µM
- TGI [11]: 7.32 µM
- GI50 [12]: 2.75 µM
- TGI [12]: 9.99 µM
- GI50 [13]: 1.72 µM
- TGI [13]: 10.8 µM
- GI50 [14]: 2.31 µM
- TGI [14]: 7.07 µM
- GI50 [15]: 1.99 µM
- TGI [15]: 4.8 µM
- GI50 [16]: 1.64 µM
- TGI [16]: 3.6 µM
- GI50 [17]: 1.66 µM
- TGI [17]: 3.28 µM
- GI50 [18]: 3.14 µM
- TGI [18]: 10.6 µM
- GI50 [19]: 2.23 µM
- TGI [19]: 4.22 µM
- GI50 [20]: 3.11 µM
- TGI [20]: 13.5 µM
- GI50 [21]: 1.53 µM
- TGI [21]: 3.23 µM
- GI50 [22]: 3.58 µM
- TGI [22]: 13.3 µM
- GI50 [23]: 3.12 µM
- TGI [23]: 11.8 µM
- GI50 [24]: 2.44 µM
- TGI [24]: 6.34 µM
- GI50 [25]: 3.02 µM
- TGI [25]: 12.9 µM
- GI50 [26]: 2.43 µM
- TGI [26]: 9.16 µM
- GI50 [27]: 2.81 µM
- TGI [27]: 9.99 µM
- GI50 [28]: 1.79 µM
- TGI [28]: 5.72 µM
- GI50 [29]: 2.35 µM
- TGI [29]: 6.04 µM
- GI50 [30]: 0.642 µM
- TGI [30]: 2.04 µM
- GI50 [31]: 1.77 µM
- TGI [31]: 3.31 µM
- GI50 [32]: 2.92 µM
- TGI [32]: 10.5 µM
- GI50 [33]: 1.88 µM
- TGI [33]: 4.58 µM
- GI50 [34]: 1.75 µM
- TGI [34]: 3.48 µM
- GI50 [35]: 1.98 µM
- TGI [35]: 8.02 µM
- GI50 [36]: 1.91 µM
- TGI [36]: > 100 µM
- GI50 [37]: 1.79 µM
- TGI [37]: 6.2 µM
- GI50 [38]: 2.56 µM
- TGI [38]: 10.1 µM
- GI50 [39]: 1.56 µM
- TGI [39]: 3.17 µM
- GI50 [40]: 3.2 µM
- TGI [40]: 10.6 µM
- GI50 [41]: 3.12 µM
- TGI [41]: 8.93 µM
- GI50 [42]: 2.86 µM
- TGI [42]: 11.3 µM
- GI50 [43]: 2.38 µM
- TGI [43]: 23.5 µM
- GI50 [44]: 1.69 µM
- TGI [44]: 3.19 µM
- GI50 [45]: 1.62 µM
- TGI [45]: 3.12 µM
- GI50 [46]: 2.76 µM
- TGI [46]: 8.19 µM
- GI50 [47]: 3.46 µM
- TGI [47]: 13 µM
- GI50 [48]: 1.6 µM
- TGI [48]: 4.01 µM
- GI50 [49]: 1.92 µM
- TGI [49]: 3.81 µM
- GI50 [50]: 2.24 µM
- TGI [50]: 5.78 µM
- GI50 [51]: 3.1 µM
- TGI [51]: 11 µM
- GI50 [52]: 1.6 µM
- TGI [52]: 3.32 µM
- GI50 [53]: 2.99 µM
- TGI [53]: 9.63 µM
- GI50 [54]: 0.784 µM
- TGI [54]: 4.8 µM
- GI50 [55]: 2.1 µM
- TGI [55]: 4.39 µM
- GI50 [56]: 2.78 µM
- TGI [56]: 9.4 µM
- GI50 [57]: 3.69 µM
- TGI [57]: 19.7 µM
- GI50 [58]: 2.83 µM
- TGI [58]: 8.44 µM
